We go through 4 compounds from patent US11572350B1, “Benzothia(di)azepine compounds and their use as bile acid modulators” (Albireo AB, priority 2020, dated 2023).

The nature of data set [1]: Bidirectional permeability assay (Caco-2 cells). The class given is in vitro ADME. To be noted: human, FaSSIF donor buffer, 120 minutes at 37° C.; for Papp A→B at 120 min, 10 µM: Caco-2, pH 7.4, absorptive direction (A2B); for Papp B→A at 120 min, 10 µM: Caco-2, pH 7.4, secretory direction (B2A). From the text: (§1) Bidirectional Permeability Assay (Caco-2 Cells)
(§2) HepaRG-Based Assay Protocol
In general terms: Passage across Caco-2 layers is used to estimate intestinal permeability.

A further data set concerns OATP KO mice. Briefly: Effect of LBAT selective compounds on serum bile acid levels in OATP KO mice. The class given is in vivo. Particulars: male OATP KO mice; for Effect on serum bile acid levels: oral dosing at the indicated doses, FIGS. 1 to 4, n=4. From the text:
Effect of LBAT Selective Compounds on Serum Bile Acid Levels in OATP KO Mice
Male OATP KO mice (Oatp1a/1b cluster knockout mice, Taconic, USA) aged 8 to 9 weeks were used in the studies. After completion of quarantine and acclimatization period, animals were randomized based on body weight into experimental groups (n=4 mice in each). On the experimental day, a baseline blood sample was collected followed by oral dosing of vehicle (0.5% CMC, 0.1% Tween 80) or compound of Example 3, 6, 13 or 15 at the indicated doses. Blood samples were then collected at various time points after dose (indicated in each graph). Blood was allowed to clot, and serum was collected by centrifugation at 3000 g, 4° C. for 15 minutes and stored at −80° C. for further analysis. The total bile acid concentration in each serum sample was determined by using the CELL BIOLABS Total Bile Acids kit (STA631) according to manufacturer's instructions. Mean±SEM, n=4.

A further data set deals with T1, human IBAT (Homo sapiens, UniProt Q12908).
T1 construct: expressed in transfected cells; kept under Puromycin selection
T1 sequence (Q12908 1-348): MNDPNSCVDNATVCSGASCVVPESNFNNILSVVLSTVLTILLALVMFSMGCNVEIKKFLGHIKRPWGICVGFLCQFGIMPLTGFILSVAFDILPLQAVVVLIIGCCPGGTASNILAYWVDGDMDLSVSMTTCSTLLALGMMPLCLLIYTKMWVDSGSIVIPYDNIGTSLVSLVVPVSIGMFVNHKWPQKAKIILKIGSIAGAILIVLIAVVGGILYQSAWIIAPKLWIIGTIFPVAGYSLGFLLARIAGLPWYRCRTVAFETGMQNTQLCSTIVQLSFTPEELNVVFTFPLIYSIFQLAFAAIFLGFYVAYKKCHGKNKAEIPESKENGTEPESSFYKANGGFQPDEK
Description: IBAT (h/m) assay: 3H-taurocholic acid uptake in human IBAT-overexpressing cells. In kind it is cell-based. To be noted: 0.25 μM 3H-taurocholic acid and 5 μM cold taurocholic acid, 20 minutes, highest test concentration 10 μM, read-out: hIBAT IC50. Here is the method: IBAT (h/m) Assay Protocol
10,000 cells (Human or Mouse IBAT-overexpressing cells) were seeded in 96-wells plate (Corning CLS3809) in 200 μL MEM-alpha medium (Gibco 12571-063) supplemented with 10% FBS (Gibco 10438026) containing Puromycin (Gibco A1113803) (10 μg/mL) and incubated at 37° C. in 5% CO2 for 48 hours. After incubation, media was decanted from the wells and cells were washed two times with 300 μL of basal MEM-alpha medium (FBS-free). After decanting basal MEM-alpha medium each time, plates were tapped against paper towel to ensure maximum removal of residual media. Test inhibitor dilutions (highest test concentration being 10 μM, 3-fold serial dilution, 10 points) prepared in DMSO (Sigma D2650) were added in incubation mix (maintaining 0.2% final DMSO concentration) containing 0.25 μM 3H-taurocholic acid (ARC ART-1368) and 5 μM of cold taurocholic acid (Sigma T4009). 50 μL of incubation mix containing test inhibitors was then added to the wells (in duplicate) and the plates were incubated for 20 minutes in a CO2 incubator at 37° C. After incubation, the reaction was stopped by keeping the plates on ice water mix for 2-3 minutes and then the incubation mix was aspirated completely from the wells. The wells were washed two times with 250 μL of chilled unlabelled 1 mM taurocholic acid dissolved in HEPES (Gibco 15630080)-buffered (10 mM) HBSS (Gibco 14175079) (pH 7.4). The plates were tapped against a paper towel after every wash to ensure maximum removal of blocking buffer.
100 μL of MicroScint-20 (PerkinElmer 6013621) was added to the wells and kept overnight at room temperature before reading the plates in TopCount NXT™ Microplate Scintillation and Luminescence Counter from PerkinElmer under 3H Test protocol (set at 120 seconds reading time per well).
(§3) Preparation of Test Compound Dilutions
(§4) All test compounds were provided in powder form at room temperature. 10 mM DMSO stocks of the test compounds were prepared, aliquoted and stored at −20° C. From the 10 mM DMSO stock of the compounds, a 3-fold serial dilution in DMSO was prepared to get a total of 10 dilutions of the test compounds. 0.5 μL of this dilution in DMSO was added to 250 μL of FBS-free basal media containing 3H-taurocholic acid and cold taurocholic acid to prepare the incubation mixture.

In the next data set the target is T2, human LBAT (Homo sapiens, UniProt Q14973).
T2 construct: expressed in transfected cells; kept under Geneticin selection
T2 sequence (Q14973 1-349): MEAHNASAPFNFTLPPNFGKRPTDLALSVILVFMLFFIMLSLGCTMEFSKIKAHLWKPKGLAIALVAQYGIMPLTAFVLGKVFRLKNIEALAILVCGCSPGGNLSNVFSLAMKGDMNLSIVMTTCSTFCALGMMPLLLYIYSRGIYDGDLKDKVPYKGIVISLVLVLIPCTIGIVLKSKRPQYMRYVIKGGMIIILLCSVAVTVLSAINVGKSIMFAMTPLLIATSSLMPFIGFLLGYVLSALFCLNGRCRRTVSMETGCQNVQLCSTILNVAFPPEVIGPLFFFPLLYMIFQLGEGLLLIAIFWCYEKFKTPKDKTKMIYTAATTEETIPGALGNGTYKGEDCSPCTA
Description: LBAT (h/m) assay: 3H-taurocholic acid uptake in human LBAT-overexpressing cells. In kind it is cell-based. Particulars: 0.3 μM 3H-taurocholic acid and 7.5 μM cold taurocholic acid, 20 minutes, read-out: hLBAT IC50. Here is the method:
LBAT (h/m) Assay Protocol
20,000 cells (Human or Mouse LBAT-overexpressing cells) were seeded in 96-wells plate (Corning CLS3809) in 100 μL MEM-alpha medium (Gibco 12571-063) supplemented with 10% FBS (Gibco 10438026) containing Geneticin (Gibco 10131-027) (1 mg/mL) and incubated at 37° C. in 5% CO2 for 24 hours. After incubation, media was decanted from the wells and cells were washed two times with 300 μL of basal MEM-alpha medium (FBS-free). After decanting basal MEM-alpha medium each time, plates were tapped against paper towel to ensure maximum removal of residual media. For human LBAT, incubation mix was prepared by adding test inhibitor dilutions (3-fold serial dilution in DMSO (Sigma D2650), 10 points) in MEM-alpha (without FBS) containing 0.3 μM 3H-taurocholic acid (ARC ART-1368) and 7.5 μM cold taurocholic acid (Sigma T4009) (maintaining 0.2% final DMSO concentration). For mouse LBAT, incubation mix was prepared by adding test inhibitor dilutions (3-fold serial dilution in DMSO, 10 points) in MEM-alpha (without FBS) containing 0.3 μM 3H-taurocholic acid and 25 μM cold taurocholic acid maintaining 0.2% final DMSO concentration). 50 μL of incubation mix containing test inhibitors was then added to the wells (in duplicate) and the plates were incubated for 20 minutes in a CO2 incubator at 37° C. After incubation, the reaction was stopped by keeping the plates on ice water mix for 2-3 minutes and then the incubation mix was aspirated completely from the wells. The wells were washed two times with 250 μL of chilled unlabelled 1 mM taurocholic acid dissolved in HEPES (Gibco 15630080)-buffered (10 mM) HBSS (Gibco 14175079) (pH 7.4). The plates were tapped against a paper towel after every wash to ensure maximum removal of blocking buffer.
100 μL of MicroScint-20 (PerkinElmer 6013621) was added to the wells and kept overnight at room temperature before reading the plates in TopCount NXT™ Microplate Scintillation and Luminescence Counter from PerkinElmer under 3H Test protocol (set at 120 seconds reading time per well, with normal plate orientation).
as §3, §4

In another data set the test system is Caco-2 cells. Description: Bidirectional permeability assay (Caco-2 cells). In kind it is in vitro ADME. To be noted: absorptive direction (A2B); FaSSIF donor buffer; 120 minutes at 37° C.
Text: as §1, §2

Broadly, the Papp A→B is the apparent permeability from the apical to the basolateral side of a cell layer. Broadly, the Papp B→A is the apparent permeability from the basolateral to the apical side of a cell layer. In general, IC50 refers to the concentration that inhibits the measured activity by half. As for `CCCCC1CN(c2ccc(F)cc2)c2cc(SC)c(O/C=C/C(=O)O)cc2S(=O)(=O)N1` (single isomer, unassigned) [Example 3, (E)-3-((3-butyl-5-(4-fluorophenyl)-7-(methylthio)-1,1-dioxido-2,3,4,5-tetrahydro-1,2,5-benzothiadiazepin-8-yl)oxy)acrylic acid], in data set [1], the Papp A→B at 120 min, 10 µM was 10.5 ×10⁻⁶ cm/s and the Papp B→A at 120 min, 10 µM came out at 17.1 ×10⁻⁶ cm/s. In addition, the “Effect on serum bile acid levels” value in the data set on OATP KO mice was “increased serum bile acid levels”. The IC50 on human IBAT worked out at 2020 nM. Besides, the IC50 at human LBAT is 1.6 nM.

In data set [1], `CCCCC1CN(c2ccccc2)c2cc(SCC)c(O/C=C(\F)C(=O)O)cc2S(=O)(=O)C1` (racemic) [Example 13, (Z)-3-((3-butyl-7-(ethylthio)-1,1-dioxido-5-phenyl-2,3,4,5-tetrahydro-1,5-benzothiazepin-8-yl)oxy)-2-fluoroacrylic acid] registered a Papp A→B at 120 min, 10 µM of 1.8 ×10⁻⁶ cm/s and a Papp B→A at 120 min, 10 µM of 6.9 ×10⁻⁶ cm/s. Moreover, the “Serum bile acids level” value in the data set on OATP KO mice (30 mg/kg oral, within one hour after dosing, pre-dose/vehicle 1 to 5 μmol/L) is given as “about 100 μmol/L”. For the same compound, in the data set on OATP KO mice, the “Effect on serum bile acid levels” value is reported as “increased serum bile acids in a dose-dependent manner”. Moreover, at human IBAT, the IC50 came to 4890 nM. The IC50 at human LBAT is 2.8 nM.

For the compound `CCCCC1CN(c2ccccc2)c2cc(SCC)c(O/C=C(\F)C(=O)O)cc2S(=O)(=O)C1` (single isomer, unassigned) [Example 15, (Z)-3-((3-butyl-7-(ethylthio)-1,1-dioxido-5-phenyl-2,3,4,5-tetrahydro-1,5-benzothiazepin-8-yl)oxy)-2-fluoroacrylic acid], the Papp B→A at 120 min, 10 µM in data set [1] was 5.3 ×10⁻⁶ cm/s. The “Permeability (Caco-2) Papp A2B” value in the data set with Caco-2 cells came to 1.3 ×10⁻⁶ cm/s. Moreover, the “Effect on serum bile acid levels” value in the data set on OATP KO mice is “increased serum bile acid levels”. For the same compound, the IC50 on human IBAT is over 3330 nM; on human LBAT, 1.2 nM.

Take `CCCCC1CN(c2ccccc2)c2cc(SCC)c(O/C=C/C(=O)O)cc2S(=O)(=O)N1` (single isomer, unassigned) [Example 6, (E)-3-((3-butyl-7-(ethylthio)-1,1-dioxido-5-phenyl-2,3,4,5-tetrahydro-1,2,5-benzothiadiazepin-8-yl)oxy)acrylic acid]: in the data set on OATP KO mice, the “Effect on serum bile acid levels” value is recorded as “increased serum bile acid levels”. In addition, the IC50 at human IBAT is over 10000 nM; at human LBAT, 129 nM.
